Experimental data from publication doi:10.1101/2020.10.13.334797v1 (biorxiv, 2020).

Experiments:
Assay type in all cases: cell-based
[1] = molecular target: truncated hTRPV4 (cryo-EM construct, residues 148-787 N651D) (Homo sapiens, UniProt Q9HBA0, N651D); assay: two-electrode voltage clamp, Xenopus oocytes
[2] = molecular target: hTRPV4 (full-length; hTRPV4WT) (Homo sapiens, UniProt Q9HBA0, Q550A); assay: calcium flux
[3] = molecular target: hTRPV4 (full-length; hTRPV4WT) (Homo sapiens, UniProt Q9HBA0, R594A); assay: calcium flux
Sequence of hTRPV4 (full-length; hTRPV4WT) (Homo sapiens, UniProt Q9HBA0, R594A) (Q9HBA0 whole entry R594A): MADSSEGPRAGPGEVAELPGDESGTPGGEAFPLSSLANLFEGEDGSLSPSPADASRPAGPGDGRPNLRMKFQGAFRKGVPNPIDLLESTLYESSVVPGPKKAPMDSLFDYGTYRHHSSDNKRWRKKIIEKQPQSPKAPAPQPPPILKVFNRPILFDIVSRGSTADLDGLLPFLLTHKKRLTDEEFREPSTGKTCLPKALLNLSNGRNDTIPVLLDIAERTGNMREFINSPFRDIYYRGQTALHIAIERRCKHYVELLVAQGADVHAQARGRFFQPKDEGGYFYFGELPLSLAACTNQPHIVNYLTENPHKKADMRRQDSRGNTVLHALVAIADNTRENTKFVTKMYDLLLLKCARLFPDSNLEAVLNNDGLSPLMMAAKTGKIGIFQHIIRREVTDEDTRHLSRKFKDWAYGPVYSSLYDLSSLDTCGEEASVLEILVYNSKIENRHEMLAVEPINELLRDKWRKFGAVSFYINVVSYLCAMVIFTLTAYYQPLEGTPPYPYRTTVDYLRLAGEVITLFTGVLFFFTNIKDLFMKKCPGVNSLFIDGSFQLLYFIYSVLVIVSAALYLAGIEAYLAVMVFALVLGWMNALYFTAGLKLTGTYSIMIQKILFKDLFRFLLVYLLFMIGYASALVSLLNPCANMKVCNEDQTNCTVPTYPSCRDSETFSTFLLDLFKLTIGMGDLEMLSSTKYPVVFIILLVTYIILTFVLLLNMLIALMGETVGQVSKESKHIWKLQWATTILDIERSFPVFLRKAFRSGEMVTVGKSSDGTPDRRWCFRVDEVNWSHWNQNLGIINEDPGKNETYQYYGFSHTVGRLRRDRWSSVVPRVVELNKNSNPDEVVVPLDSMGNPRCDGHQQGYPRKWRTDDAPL

[4] = molecular target: hTRPV4 (full-length; hTRPV4WT) (Homo sapiens, UniProt Q9HBA0, N474A); assay: calcium flux
Sequence of hTRPV4 (full-length; hTRPV4WT) (Homo sapiens, UniProt Q9HBA0, N474A) (Q9HBA0 whole entry N474A): as the sequence (Q9HBA0 whole entry R594A) above, with N474A, A594R counted along it

[5] = molecular target: hTRPV4 (full-length; hTRPV4WT) (Homo sapiens, UniProt Q9HBA0, L584M); assay: calcium flux
Sequence of hTRPV4 (full-length; hTRPV4WT) (Homo sapiens, UniProt Q9HBA0, L584M) (Q9HBA0 whole entry L584M): as the sequence (Q9HBA0 whole entry R594A) above, with L584M, A594R counted along it

[6] = molecular target: hTRPV4 (full-length; hTRPV4WT) (Homo sapiens, UniProt Q9HBA0, S548V); assay: calcium flux
Sequence of hTRPV4 (full-length; hTRPV4WT) (Homo sapiens, UniProt Q9HBA0, S548V) (Q9HBA0 whole entry S548V): as the sequence (Q9HBA0 whole entry R594A) above, with S548V, A594R counted along it

[7] = molecular target: hTRPV4 (full-length; hTRPV4WT) (Homo sapiens, UniProt Q9HBA0, N474Q); assay: calcium flux
Sequence of hTRPV4 (full-length; hTRPV4WT) (Homo sapiens, UniProt Q9HBA0, N474Q) (Q9HBA0 whole entry N474Q): as the sequence (Q9HBA0 whole entry R594A) above, with N474Q, A594R counted along it

[8] = molecular target: hTRPV4 (full-length; hTRPV4WT) (Homo sapiens, UniProt Q9HBA0, K535A); assay: calcium flux
Sequence of hTRPV4 (full-length; hTRPV4WT) (Homo sapiens, UniProt Q9HBA0, K535A) (Q9HBA0 whole entry K535A): as the sequence (Q9HBA0 whole entry R594A) above, with K535A, A594R counted along it

[9] = molecular target: hTRPV4 (full-length; hTRPV4WT) (Homo sapiens, UniProt Q9HBA0, F549A); assay: calcium flux
Sequence of hTRPV4 (full-length; hTRPV4WT) (Homo sapiens, UniProt Q9HBA0, F549A) (Q9HBA0 whole entry F549A): as the sequence (Q9HBA0 whole entry R594A) above, with F549A, A594R counted along it

[10] = molecular target: hTRPV4 (full-length; hTRPV4WT) (Homo sapiens, UniProt Q9HBA0, Y556A); assay: calcium flux
Sequence of hTRPV4 (full-length; hTRPV4WT) (Homo sapiens, UniProt Q9HBA0, Y556A) (Q9HBA0 whole entry Y556A): as the sequence (Q9HBA0 whole entry R594A) above, with Y556A, A594R counted along it

[11] = molecular target: hTRPV4 (full-length; hTRPV4WT) (Homo sapiens, UniProt Q9HBA0); assay: calcium flux
Sequence of hTRPV4 (full-length; hTRPV4WT) (Homo sapiens, UniProt Q9HBA0) (Q9HBA0 whole entry): as the sequence (Q9HBA0 whole entry R594A) above, with A594R counted along it

Sequence of hTRPV4 (full-length; hTRPV4WT) (Homo sapiens, UniProt Q9HBA0, Q550A) (Q9HBA0 whole entry Q550A): as the sequence (Q9HBA0 whole entry R594A) above, with Q550A, A594R counted along it
Sequence of truncated hTRPV4 (cryo-EM construct, residues 148-787 N651D) (Q9HBA0 148-787 N651D): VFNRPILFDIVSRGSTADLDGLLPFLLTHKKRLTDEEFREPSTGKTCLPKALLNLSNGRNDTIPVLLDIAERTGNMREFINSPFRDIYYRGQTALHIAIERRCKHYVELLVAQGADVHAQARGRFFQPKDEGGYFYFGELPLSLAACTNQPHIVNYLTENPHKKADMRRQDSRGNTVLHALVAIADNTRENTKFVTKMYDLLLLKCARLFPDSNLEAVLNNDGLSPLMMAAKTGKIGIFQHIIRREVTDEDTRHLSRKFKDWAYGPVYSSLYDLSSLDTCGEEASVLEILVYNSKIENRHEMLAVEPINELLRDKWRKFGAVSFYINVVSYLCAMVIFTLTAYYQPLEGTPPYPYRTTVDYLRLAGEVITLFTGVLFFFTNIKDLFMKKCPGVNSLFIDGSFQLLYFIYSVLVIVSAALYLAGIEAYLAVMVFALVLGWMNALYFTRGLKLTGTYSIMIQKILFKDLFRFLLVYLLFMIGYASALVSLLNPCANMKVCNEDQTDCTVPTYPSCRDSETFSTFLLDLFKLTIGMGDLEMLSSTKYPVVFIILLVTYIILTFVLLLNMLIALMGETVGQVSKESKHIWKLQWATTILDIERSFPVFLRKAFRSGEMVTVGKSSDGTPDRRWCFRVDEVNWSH

EC50 [1]: 8430 nM
EC50 [2]: 27 ± 13 nM
EC50 [3]: > 25000 nM
EC50 [4]: 540 ± 150 nM
EC50 [5]: 4 ± 1.7 nM
EC50 [6]: 110 ± 18 nM
EC50 [7]: > 25000 nM
EC50 [8]: 7.4 ± 2.9 nM
EC50 [9]: 9.8 ± 4.1 nM
EC50 [10]: 9.6 ± 4.3 nM
EC50 [11]: 1.21 ± 0.033 nM
Compound: CC(C)C[C@H](NC(=O)c1cc2ccccc2s1)C(=O)N1CCN(C(=O)[C@H](CO)NS(=O)(=O)c2ccc(Cl)cc2Cl)CC1 [GSK1016790A]
